{"source": "a melting point compilation (Tetko et al.; mined from patent text by program, amines drawn as free bases though some values may be those of a salt)"}
{"units": {"melting point": "°C"}}
{"smiles": "CCOC(=O)CN1CCN(CC(O)COc2cc3c(Nc4cccc(Br)c4)ncnc3cc2OC)CC1", "note": "(centres undefined)", "melting point": "118 to 122"}
{"smiles": "CCOC(=O)c1cc(C=O)cn1C", "melting point": "75 to 76"}
{"smiles": "CC(Cc1ccccc1)(NC(=O)OC1CCCCc2ccccc21)C(=O)NCCCCCCCCC(N)=O", "note": "(centres undefined)", "melting point": "98 to 100"}
{"smiles": "CCOC(=O)NC1Cc2ccccc2C1Nc1ccccc1CO", "note": "(centres undefined)", "melting point": "115 to 117"}
{"smiles": "CC(C)Cc1ccc(C(C)C(=O)NO)cc1", "note": "(centres undefined)", "melting point": "119 to 121"}
{"smiles": "CCOC(=O)Nc1ccc(OC)c(OC)c1C1OCCO1", "melting point": "95 to 96"}
{"smiles": "Nc1nsnc1-c1ccc(Cl)cc1", "melting point": "132 to 133"}
{"smiles": "C[C@H](CCC=O)[C@H]1CC[C@@]2(C)C3=C(CC[C@]12C)[C@@]1(C)CCC(=O)C(C)(C)C1CC3", "note": "(some centres undefined)", "melting point": "110 to 115"}
{"smiles": "COc1cc2c(c3c1OC(C)(C)C3)C(c1cccc(NC(=O)c3ccc(Cl)nc3Cl)c1)=NC(C)(C)C2", "melting point": "130 to 132"}
{"smiles": "Cc1[nH]n(C2CCC2)c2nc(-c3ccncc3)nc(=O)c1-2", "melting point": "289 to 290"}
{"smiles": "COc1ccc(CCCn2ccnc2S)cc1", "melting point": "108 to 109"}
{"smiles": "CCOc1nc(NCc2ccco2)nc(Nc2ccc(O)cc2)n1", "melting point": 45}
{"smiles": "CCOC(=O)c1c(C)cc2c(c1C)C(=O)O/C2=C\\C#N", "melting point": "108 to 109"}
{"smiles": "COc1ccccc1C1(CC(=O)O)C(=O)Nc2cc(Cl)c(Cl)cc21", "note": "(centres undefined)", "melting point": "222 to 224"}
{"smiles": "CC[C@H]1COC(=O)N1c1nc(-c2ccc(C#N)cc2)c(Cl)s1", "melting point": "157 to 159"}
{"smiles": "O=C(O)c1cc2cc(Cl)ccc2nc1N[C@@H](Cc1ccc(OCc2ccccc2)cc1)C(=O)O", "melting point": "169 to 171"}
{"smiles": "O=[N+]([O-])c1cccc2c1COCO2", "melting point": "76 to 77"}
{"smiles": "O=C1NCCN1C(=O)N1CCOCC1", "melting point": 158}
{"smiles": "Fc1ccc(-c2ncn(CCCOc3ccccc3)c2-c2ccncc2)cc1", "melting point": "95 to 96"}
{"smiles": "CC(=O)N(C)c1cc2c(nc(C)n2C)c(O)c1CCC(=O)c1ccccc1", "melting point": "249 to 251"}
{"smiles": "O=S(=O)(c1c[nH]c(Br)c1-c1ccc(Cl)cc1)C(F)(F)F", "melting point": "163 to 165"}
{"smiles": "CCCC1=C(C#N)C(c2cccc(Br)c2)c2c[nH]nc2N1", "note": "(centres undefined)", "melting point": "202 to 205"}
{"smiles": "COc1cc2c(cc1OC)/C(=N/OCc1ccc([N+](=O)[O-])cc1)CC2", "melting point": "139 to 144"}
{"smiles": "CCOC(=O)N1C=CC(c2c(-c3ccccc3)nn3ccccc23)C(Cl)=N1", "note": "(centres undefined)", "melting point": "130 to 132"}
{"smiles": "CCCCc1nc(CCCC)n(Cc2ccc(-c3ccccc3C(=O)O)cc2)n1", "melting point": "134 to 135"}
{"smiles": "COc1cc2ncc3c4cc5c(cc4ccc3c2cc1OC)OCO5", "melting point": 225}
{"smiles": "C#CCOc1ccc(Cc2nnc(Cl)c3ccccc23)cc1", "melting point": "129 to 131"}
{"smiles": "CCCc1nc2c(N)nc3ccccc3c2n1CCCCCCCCCCCC(=O)NC", "melting point": "135 to 137"}
{"smiles": "CCCCC(=O)c1c(CSc2nccn2C)nc2cc(OC)c(OC)cc2c1-c1ccc(OC)c(OC)c1", "melting point": "125 to 127"}
{"smiles": "COc1cc(OCc2c(C)noc2C)c(C=CC(=O)c2ccc(C(=O)O)cc2)cc1-c1cccs1", "melting point": "213 to 215"}
{"smiles": "Cc1noc(-c2ccc(I)cc2)n1", "melting point": "136 to 137"}
{"smiles": "CCC1=NN=C(CC)NN1", "melting point": "118 to 120"}
{"smiles": "CCOc1ccc2nc(SC(C)(C(=O)O)c3ccccc3)sc2c1", "note": "(centres undefined)", "melting point": "152 to 153"}
{"smiles": "CCCCCCCCCCCCCCCCNc1ccc(C2=NCCO2)cc1", "melting point": "123 to 125"}
{"smiles": "c1ccc2nc(CN(CCN(Cc3ccc4ccccc4n3)Cc3ccc4ccccc4n3)Cc3ccc4ccccc4n3)ccc2c1", "melting point": "196 to 198"}
{"smiles": "CC(C)(C)OC(=O)Cc1nc(Sc2ccccc2)ccc1[N+](=O)[O-]", "melting point": "104 to 107"}
{"smiles": "COc1ccc(C2=NN(CCc3ccccc3)C(=O)[C@H]3CCCC[C@@H]23)cc1OC", "note": "(relative stereo)", "melting point": "99 to 100"}
{"smiles": "Cc1csc(-c2cc(=O)n(C)c3ccc(C(O)(c4ccc(Cl)cc4)c4cncn4C)cc23)n1", "note": "(centres undefined)", "melting point": 200}
{"smiles": "CC1(C)CC(=O)Nc2c(Br)cc3c(c21)OC(CN=[N+]=[N-])C3", "note": "(centres undefined)", "melting point": "187 to 189"}
{"smiles": "CCCCOc1ncc(I)cc1C(N)=O", "melting point": "163 to 166"}
{"smiles": "NC(Cc1c(Cl)cccc1Cl)=NO", "melting point": "172 to 173"}
{"smiles": "CCn1ncc2c1ncc1c(Cl)nc3ncnn3c12", "melting point": "196 to 197"}
{"smiles": "COc1ccc(Cl)cc1[C@]1(F)C(=O)N(C(=O)NC(C)(C)C(=O)OC(C)(C)C)c2cc(C(F)(F)F)ccc21", "melting point": "57 to 60"}
{"smiles": "COC(=O)CCCCCCC1C(=O)CCN1C(=O)c1ccc(-c2ccccc2)cc1", "note": "(centres undefined)", "melting point": "90 to 92"}
{"smiles": "CCCCCCC1=CC(=C(Br)Br)NC1=O", "melting point": "103 to 105"}
{"smiles": "CCCn1c(=O)c2c(NC)n(C(=O)C(C)C)nc2n(Cc2cccc(Cl)c2)c1=O", "melting point": "154 to 156"}
{"smiles": "CCCc1ccc(S(=O)(=O)NCc2ccccn2)cc1", "melting point": 109}
{"smiles": "Nc1ccc(Nc2ccc([N+](=O)[O-])cc2S(=O)(=O)CCO)cc1", "melting point": "147 to 149"}
{"smiles": "c1nnc2c3c(c(NCCCCN4CCCC4)nn12)CCCC3", "melting point": "158 to 160"}
{"smiles": "CC1(C)Nc2c(Cl)cccc2NC1=O", "melting point": "153 to 156"}
{"smiles": "CCCC(O)(CCC)c1ccc(Cl)c2nc3n(c12)CCCN3c1ccc(Cl)cc1Cl", "melting point": "133 to 135"}
{"smiles": "CC(=O)OC1CCC2(C)C(CCC3C4CC(C)C(O)(C(C)=O)C4(C)CCC32F)C1", "note": "(centres undefined)", "melting point": 150}
{"smiles": "O=C(NCc1cccc2ccccc12)NC1CCN(S(=O)(=O)c2ccccc2C(F)(F)F)C1", "note": "(centres undefined)", "melting point": "117 to 119"}
{"smiles": "CC(C)Oc1cccc(-n2c(NC(=O)Nc3cccc(C(=O)O)c3)nc3ccccc3c2=O)c1", "melting point": "158 to 160"}
{"smiles": "Cc1nn(-c2ccccn2)cc1CO", "melting point": "116 to 117"}
{"smiles": "Cc1cc(-c2ccc(Cl)cc2)nc(-c2cccc(-c3ccc(S(N)(=O)=O)s3)c2)n1", "melting point": 227}
{"smiles": "CC(=O)Nc1[nH]c(-c2ccc(O)cc2)nc1C", "melting point": "277 to 279"}
{"smiles": "Cc1cccc(OCC(F)(F)F)c1N(Cc1cc[nH]n1)C(=O)CCl", "melting point": "104 to 105"}
{"smiles": "Fc1cccc(F)c1-c1nc2ccccc2n1Cc1ccccc1", "melting point": 124}
{"smiles": "O=C1OCCN1c1cccc(CCBr)c1", "melting point": "73 to 75"}
{"smiles": "N=C(NO)c1ccc(-c2ccc(Br)o2)cc1", "melting point": "116 to 117"}
{"smiles": "Cc1nnc(-c2cc3c(OC[C@@H](O)CN4CCC(c5cccc6ccccc56)CC4)cccc3[nH]2)o1", "melting point": "203 to 205"}
{"smiles": "O=c1c(Br)cn(Cc2ccccc2)cc1Cc1ccccc1", "melting point": "120 to 121"}
{"smiles": "COc1cc2c(c3c1OC(C)(C)C3)C(Nc1ccccc1)=NC(C)(C)C2", "melting point": "135 to 136"}
{"smiles": "CC(C)c1c(C(=O)Nc2ccccc2)c(-c2ccc(F)cc2)cn1-c1ccccc1", "melting point": "192 to 194"}
{"smiles": "CC(C)Oc1ccc2c(n1)C(C(=O)c1cccs1)C(=O)N2C(N)=O", "note": "(centres undefined)", "melting point": "194 to 196"}
{"smiles": "CCOc1c(-c2ccc3cc(NS(C)(=O)=O)ccc3c2)cc(-n2ccc(=O)[nH]c2=O)cc1C(C)(C)C", "melting point": "196 to 202"}
{"smiles": "COC(=O)c1cccc(-c2c(C)c(C(=O)c3ccc(N)c(C(=O)OC)c3)n3ccccc23)c1", "melting point": 232}
{"smiles": "COc1ccc([C@H](Sc2ccccc2NC(C)=O)[C@@H](O)C(=O)O)cc1", "melting point": "173 to 175"}
{"smiles": "CC(C)(Oc1ccc(Cc2ccccc2)cc1)C(=O)O", "melting point": 130}
{"smiles": "Cc1cc(=O)n(-c2cc(C(=O)OC(C)C)c(C#N)cc2F)c(=O)n1C", "melting point": "188 to 200"}
{"smiles": "O=c1[nH]c(SCc2ccccc2)nc2c1NCN2C(c1ccccc1)(c1ccccc1)c1ccccc1", "melting point": "267 to 270"}
{"smiles": "COc1ccc(-c2c(Cl)c(CN3C(=O)CCC3=O)nc3sc4c(c23)CCNC4)cc1OC", "melting point": "250 to 252"}
{"smiles": "Cc1nn(CC(F)F)c(-c2ccc(F)cc2)c1-c1ccc2c(c1)NC(=O)CO2", "melting point": 168}
{"smiles": "COc1ccc(CNc2ccc(Cl)cc2C(=O)C(F)(F)F)cc1OC", "melting point": "82 to 84"}
{"smiles": "CC(C)C(c1ccc(NC(=O)CC(=O)c2ccccc2)c([N+](=O)[O-])c1)n1ccnc1", "note": "(centres undefined)", "melting point": 106}
{"smiles": "O=Cc1c(Cl)cccc1OC[C@H]1CO1", "melting point": "62 to 64"}
{"smiles": "O=Cc1c2ccccc2c(C=O)c2cc(Cl)ccc12", "melting point": "192 to 195"}
{"smiles": "Cc1oc(-c2ccccc2)nc1CCNCc1ccc(C[C@@H](C(=O)O)n2cccc2)cc1", "melting point": "208 to 210"}
{"smiles": "OCCCc1cn(-c2ccc(C(F)(F)F)cn2)nc1C1CCCCC1", "melting point": "106 to 107"}
{"smiles": "CC(C)(C)OC(=O)CCN1CCC(O)(c2ccc(O)cc2CO)CC1", "melting point": "68 to 70"}
{"smiles": "CCCSc1ccc([N+](=O)[O-])c(NC(=S)NC(=O)OC)c1", "melting point": "122 to 125"}
{"smiles": "O=c1[nH]c2cc(Cl)cc(Cl)c2c(=O)n1Cc1cccc(Cl)c1", "melting point": "276 to 279"}
{"smiles": "CCS(=O)(=O)c1ccc2c(c1)nc(CC(C)(C)C)n2CC1CCCO1", "note": "(centres undefined)", "melting point": 142}
{"smiles": "CCOC(=O)CN1CCN(Cc2cnc(-c3cc4cccc(N(C)S(=O)(=O)c5cccs5)c4[nH]3)s2)CC1", "melting point": "167 to 169"}
{"smiles": "CN1CC(CNC(=S)NC(=O)c2ccccc2)CC2c3cccc4[nH]cc(c34)CC21", "note": "(centres undefined)", "melting point": "153 to 155"}
{"smiles": "CC(=Cc1cc(Cl)ccc1O)[N+](=O)[O-]", "melting point": "104 to 106"}
{"smiles": "COc1cc2c(=O)n(NS(C)(=O)=O)c(=O)[nH]c2cc1[N+](=O)[O-]", "melting point": "> 280"}
{"smiles": "CCC(C)N1C(=O)c2ccc(C)nc2C1=O", "note": "(centres undefined)", "melting point": "105 to 106"}
{"smiles": "CCCCC[C@H]1CC[C@H](CCC2CCC(c3ccc(Oc4ccc(N)cc4)cc3)(c3ccc(Oc4ccc(N)cc4)cc3)CC2)CC1", "melting point": "171 to 172"}
{"smiles": "COc1ccc(C(=O)/C=C/c2c(-c3ccc(F)cc3)nc3sccn23)cc1OC", "melting point": "221 to 223"}
{"smiles": "COCCc1nnc(NC(=O)C(c2ccccc2)c2ccccc2)o1", "melting point": "114 to 115"}
{"smiles": "CCO[C@@H](Cc1ccc(OCCc2nc(C(C)(C)C)oc2C)c2ccsc12)C(=O)O", "melting point": "152 to 153"}
{"smiles": "CCOC(=O)c1c(-c2ccc(OC)cc2)c2oc3ccc(-c4ccccc4)cc3c2n(Cc2cc(OC)ccc2OC)c1=O", "melting point": 216}
{"smiles": "O=C1C=CCC2=C3C(=CCN3C13COc1cc4c(cc13)OCO4)CCC2", "note": "(centres undefined)", "melting point": "176 to 177"}
{"smiles": "CC(=O)CCCC(=O)NC(CC(=O)C(=O)C(C)(Cc1c[nH]c2ccccc12)NC(=O)OC1C2CC3CC(C2)CC1C3)c1ccccc1", "note": "(centres undefined)", "melting point": "69 to 71"}
{"smiles": "Nc1nccc2occc12", "melting point": "122 to 124"}
{"smiles": "COC(=O)Cc1ccc2oc(=S)[nH]c2c1", "melting point": "120 to 122"}
{"smiles": "O=C1NC(Cc2ccccc2)=C2OCOCOC2C(Cc2ccccc2)N1", "note": "(centres undefined)", "melting point": "125 to 130"}
